Results on 4 molecules are retold here after patent US7135493B2, “HDAC inhibitor” (Astellas Pharma Inc., priority 2003, dated 2006).

Assay [1] concerns the target human histone deacetylase. Briefly: Test 1: Determination of histone deacetylase inhibitor activity ([3H]acetyl histone deacetylation). It is filed as biochemical. Particulars: human histone deacetylase partially purified from Jurkat cells; [3H]acetyl-labeled histones, 25° C., 30 minutes; read-out: Test 1: HDAC inhibitory activity IC50. How it is done:
Test 1: Determination of Histone Deacetylase Inhibitor Activity
The partial purification of human histone deacetylase, the preparation of [^3H] acetyl histones, and the assay for histone deacetylase activity were performed basically according to the method as proposed by Yoshida et al. as follows.
Partial Purification of Human Histone Deacetylase
The human histone deacetylase was partially purified from human T cell leukemia Jurkat cells. Jurkat cells (5×10^8 cells) were suspended in 40 mL of the HDA buffer consisting of 15 mM potassium phosphate, pH 7.5, 5% glycerol and 0.2 mM EDTA. After homogenization, nuclei were collected by centrifugation (35,000×g, 10 min) and homogenized in 20 mL of the same buffer supplemented with 1 M (NH4)2SO4. The viscous homogenate was sonicated and clarified by centrifugation (35,000×g, 10 min), and the deacetylase was precipitated by raising the concentration of (NH4)2SO4 to 3.5 M. The precipitated protein was dissolved in 10 mL of the HDA buffer and dialyzed against 4 liters of the same buffer. The dialyzate was then loaded onto a DEAE-cellulose (Whatman DE52) column (25×85 mm) equilibrated with the same buffer and eluted with 300 mL of a linear gradient (0–0.6 M) of NaCl. A single peak of histone deacetylase activity appeared between 0.3 and 0.4 M NaCl.
Preparation of [^3H] Acetyl Histone
To obtain [^3H] acetyl-labeled histone as the substrate for the histone deacetylase assay, 1×10^8 cells of Jurkat in 20 mL of RPMI-1640 medium (supplemented with 10% FBS, penicillin (50 units/mL) and streptomycin (50 μg/mL)) were incubated with 300 MBq [^3H] sodium acetate in the presence of 5 mM sodium butyrate for 30 minutes in 5% CO2-95% air atmosphere at 37° C. in a 75 cm^2 flask, harvested into a centrifuge tube (50 mL), collected by centrifugation at 1000 rpm for 10 minutes, and washed once with phosphate-buffered saline. The washed cells were suspended in 15 mL of ice-cold lysis buffer (10 mM Tris-HCl, 50 mM sodium bisulfite, 1% Triton X-100, 10 mM MgCl2, 8.6% sucrose, pH 6.5). After Dounce homogenization (30 stroke), the nuclei were collected by centrifugation at 1000 rpm for 10 minutes, washed 3 times with 15 mL of the lysis buffer, and once with 15 mL of ice-cooled washing buffer (10 mM Tris-HCl, 13 mM EDTA, pH 7.4) successively. […]
For the standard assay, 10 μl of [^3H] acetyl-labeled histones were added to 90 μl of the enzyme fraction, and the mixture was incubated at 25° C. for 30 minutes. […] The released [^3H] acetic acid was extracted with 1 mL of ethyl acetate, and 0.9 mL of the solvent layer was taken into 10 mL of toluene scintillation solution for determination of radioactivity.

In assay [2] the test system is splenic cells of Lewis rats. Description: Test 2: Determination of T-cell growth inhibitor activity (T lymphocyte blastogenesis, Concanavalin A, AlamarBlue). In kind it is cell-based. The conditions noted are these: Lewis rat splenic cells, 72 hours, AlamarBlue Assay, read-out: Test 2: T-cell growth inhibitory activity IC50. The method, then: Test 2: Determination of T-Cell Growth Inhibitor Activity
The T lymphocyte blastogenesis test was performed in microtiter plates with each well containing 1.5×10^5 splenic cells of Lewis rats in 0.1 mL RPMI-1640 medium supplemented with 10% fetal bovine serum-(FBS), […] 2-mercaptoethanol, penicilln (100 units/mL) and streptomycin (100 μg/mL), to which Concanavalin A ([…]) was added. The cells were incubated at 37° C. in a humidified atmosphere of 5% CO2 for 72 hours. After the culture period, suppressive activities of the test compounds in T lymphocyte blastogenesis were quantified by AlamarBlue (trademark) Assay. The test samples were dissolved in DMSO and further diluted with RPMI-1640 medium and added to the culture. The activities of the test compounds were expressed as IC50.
(In general: Alamar Blue is a resazurin reagent that responds to reducing activity.)

On to `O=C(/C=C/c1ccc(Cc2nc3ccccc3[nH]2)cc1)NO` [Compound E1], for which the IC50 in assay [1] came to 28 nM; in assay [2], 69 nM.
Take `O=C(/C=C/c1ccc(CCc2nc3ccccc3[nH]2)cc1)NO` [Compound E3]: the figures for the IC50 in assay [1] and in assay [2] were 140 nM and 160 nM, respectively.
On to `O=C(/C=C/c1ccc(C(Cc2ccccc2)c2nc3ccccc3n2Cc2ccccc2)cc1)NO` (centres unmarked) [Compound E5], for which the concentration for half-maximal inhibition (IC50) was 96 nM in assay [1] and 310 nM in assay [2].
For the molecule `O=C(/C=C/c1cccc(Cc2nc3ccccc3[nH]2)c1)NO` [Compound E6], the IC50 in assay [1] and in assay [2] was 150 nM throughout.

What is called IC50 is the midpoint of a concentration-inhibition curve.
